Test results taken from patent US9227935B2, “Piperidine/piperazine derivatives” (Janssen Pharmaceutica N.V., priority 2007, dated 2016).

The compounds below were run against T1, human DGAT1 (Homo sapiens, UniProt O75907) (assay: DGAT1 FlashPlate inhibition assay with DGAT1 membrane preparations). Settings: IC50 values expressed in M; pIC50 = -logIC50; inhibition of DGAT1 activity.
T1 construct: FLAG (N); made in house; host or cells: SF9 insect cells (baculovirus, pFastBac); total cell membranes used as the enzyme source
T1 sequence (O75907 1-488): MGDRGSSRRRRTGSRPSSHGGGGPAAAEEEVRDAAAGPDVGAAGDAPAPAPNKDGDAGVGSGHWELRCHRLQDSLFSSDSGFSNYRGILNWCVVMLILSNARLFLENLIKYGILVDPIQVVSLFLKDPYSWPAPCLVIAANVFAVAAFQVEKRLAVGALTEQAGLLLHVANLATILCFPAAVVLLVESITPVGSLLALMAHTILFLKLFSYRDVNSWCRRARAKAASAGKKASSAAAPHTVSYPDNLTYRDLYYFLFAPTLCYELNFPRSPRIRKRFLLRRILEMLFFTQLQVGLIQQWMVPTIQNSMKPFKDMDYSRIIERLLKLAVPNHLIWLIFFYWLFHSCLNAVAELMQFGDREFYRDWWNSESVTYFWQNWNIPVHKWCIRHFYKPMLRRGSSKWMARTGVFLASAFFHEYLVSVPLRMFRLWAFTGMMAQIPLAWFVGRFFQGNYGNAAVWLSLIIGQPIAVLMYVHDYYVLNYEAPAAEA
Format: biochemical
Text: The inhibiting activity of the present compounds on DGAT1 activity was screened in a single well procedure assay using DGAT1 comprising membrane preparations and DGAT1 substrate comprising micelles and determining formed radio-active triacylglycerol coming in close proximity of a flashplate surface by radioluminescence.
Said assay is described in full detail in WO2006/067071, the content of which is incorporated herein by reference.
By DGAT1 activity is meant the transfer of coenzyme A activated fatty acids to the 3-position of 1,2-diacylglycerols, thus forming a triglyceride molecule, by enzyme DGAT1.
human DGAT1 (NM012079.2) was cloned into the pFastBac vector, containing translation start, a FLAG-tag at the N-terminus as described in literature and a viral Kozak sequence (AAX) preceding the ATG to improve expression in insect cells. Expression was done as described in literature (Cases, S., Smith, S. J., Zheng, Y., Myers H. M., Lear, S. R., Sande, E., Novak, S., Collins, C., Welch, C. B., Lusis, A. J., Erickson, S. K. and Farese, R. V. (1998) Proc. Natl. Acad. Sci. USA 95, 13018-13023.) using SF9 cells.
72 h transfected SF9 cells were collected by centrifugation (13000 rpm-15 min-4° C.) and lysed in 2×500 ml lysis buffer (0.1M Sucrose, 50 mM KCl, 40 mM KH2PO4, 30 mM EDTA pH 7.2. Cells were homogenized by cell disruptor. After centrifugation 1380 rpm-15 min-4° C. (SN discarded), pellet was resuspended in 500 ml lysis buffer and total cell membranes collected by ultracentrifugation at 34000 rpm (100 000 g) for 60 min (4° C.). The collected membranes were resuspended in lysis buffer, divided in aliquots and stored with 10% glycerol at −80° C. until use.
Add 1 ml dioleoyl-sn-glycerol (10 mg/ml) to 10 ml of L-α-phosphatidylcholine (1 mg/ml) and 10 ml of L-α-phosphatidyl-L-serine (1 mg/ml) in a thick glass recipient. Evaporate under nitrogen and put on ice for 15 minutes. Reconstitute in 10 ml Tris/HCl (10 mM, pH 7.4) by sonication on ice. The sonification process consists of sonification cycles of 10 seconds in the sonification bath followed by 10 seconds cool down on ice and repeating this sonification cycle till a homogeneous solution is obtained (takes about 15 minutes). The thus obtained micelles are stored at −20° C. till later use and contain DAG at a final concentration of 1.61 mM.
• 50 mM Tris-HCl (pH 7.4), 150 mM MgCl2, 1 mM EDTA, 0.2% BSA. b) N-ethylmaleimide, 5M • Dissolve 5 g into a final volume of 8 ml DMSO 100% and store at −20° C. in aliquots till later use. c) Substrate mix (for 1 384 well plate=3840 μl) • 612 μl micelles stock (51 μM final) • 16.6 μl oleoylCoA 9.7 mM • 23 μl [^3H]-oleoylCoA (49 Ci/mmol, 500 μCi/ml) • 3188.4 μl Tris pH 7.4, 10 mM d) Enzyme mix (for 1 384 well plate=3520 μl) (5 μg/ml) • Add 11.73 μl of DGAT membrane stock (1500 μg/ml stock) to 3508 μl assay buffer. e) Stop mix (for 1 384 well plate=7.68 ml) (250 mM) • Add 384 μl of N-ethylmaleimide (5M) to 3.456 ml DMSO 100%, and further dilute 3.84 ml of said solution with 3.84 ml DMSO 10%. Method
DGAT activity in membrane preparations was assayed in 50 mM Tris-HCl (pH 7.4), 150 mM MgCl2, 1 mM EDTA and 0.2% BSA, containing 50 μM DAG, […] PC/PS and 8.4 μM [^3H]-oleoylCoA (at a specific activity of 30 nCi/well) in a final volume of 50 μl in 384-well format using the red shifted Basic Image FlashPlate™ (Perkin Elmer Cat. No. SMP400).
In detail, 10 μl enzyme mix and 10 μl substrate mix were added to 30 μl of assay buffer, optionally in the presence of 1 μl DMSO (blank and controls) or 1 μl of the compound to be tested. This reaction mixture was incubated for 120 minutes at 37° C. and the enzymatic reaction stopped by adding 20 μl of the stop mix. The plates were sealed and the vesicles allowed to settle overnight at room temperature. Plates were centrifuged for 5 minutes at 1500 rpm and measured in Leadseeker. […]

| Compound | IC50 |
| --- | --- |
| O=C(Nc1ccc(N2CCN(C(=O)Nc3ccccc3Cl)CC2)cc1)c1ccccc1-c1ccc(C(F)(F)F)cc1 [Compound 89] | 1700 nM |
| O=C(Nc1ccc(N2CCN(C(=O)Nc3ccccc3F)CC2)cc1)c1ccccc1-c1ccc(C(F)(F)F)cc1 [Compound 90] | 2950 nM |
| O=C(Nc1ccc(N2CCN(C(=O)Nc3ccccc3I)CC2)cc1)c1ccccc1-c1ccc(C(F)(F)F)cc1 [Compound 91] | 1510 nM |
| O=C(Nc1ccc(N2CCN(C(=O)Nc3ccccc3[N+](=O)[O-])CC2)cc1)c1ccccc1-c1ccc(C(F)(F)F)cc1 [Compound 92] | 2340 nM |
| CSc1ccccc1NC(=O)N1CCN(c2ccc(NC(=O)c3ccccc3-c3ccc(C(F)(F)F)cc3)cc2)CC1 [Compound 93] | 4790 nM |
| Cc1cccc(Cl)c1NC(=O)N1CCN(c2ccc(NC(=O)c3ccccc3-c3ccc(C(F)(F)F)cc3)cc2)CC1 [Compound 94] | 148 nM |
| Cc1cccc([N+](=O)[O-])c1NC(=O)N1CCN(c2ccc(NC(=O)c3ccccc3-c3ccc(C(F)(F)F)cc3)cc2)CC1 [Compound 95] | 407 nM |
| O=C(Nc1ccc(N2CCN(C(=O)Nc3c(F)cc(F)cc3Br)CC2)cc1)c1ccccc1-c1ccc(C(F)(F)F)cc1 [Compound 96] | 525 nM |
| O=C(Nc1ccc(N2CCN(C(=O)Nc3c(Br)cc(Br)cc3Br)CC2)cc1)c1ccccc1-c1ccc(C(F)(F)F)cc1 [Compound 97] | 490 nM |
| O=C(Nc1ccc(N2CCN(C(=O)Nc3c(F)cc(Br)cc3F)CC2)cc1)c1ccccc1-c1ccc(C(F)(F)F)cc1 [Compound 98] | 2630 nM |
| O=C(Nc1ccc(N2CCN(C(=O)Nc3c(Cl)cc(Cl)cc3Cl)CC2)cc1)c1ccccc1-c1ccc(C(F)(F)F)cc1 [Compound 99] | 1820 nM |
| Cc1cc(Br)cc(C)c1NC(=O)N1CCN(c2ccc(NC(=O)c3ccccc3-c3ccc(C(F)(F)F)cc3)cc2)CC1 [Compound 100] | 1550 nM |
| Cc1ccc([N+](=O)[O-])c(NC(=O)N2CCN(c3ccc(NC(=O)c4ccccc4-c4ccc(C(F)(F)F)cc4)cc3)CC2)c1C [Compound 101] | 525 nM |
| Cc1cc(C)c(NC(=O)N2CCN(c3ccc(NC(=O)c4ccccc4-c4ccc(C(F)(F)F)cc4)cc3)CC2)c(Cl)c1 [Compound 102] | 170 nM |
| Cc1cc(C)c(NC(=O)N2CCN(c3ccc(NC(=O)c4ccccc4-c4ccc(C(F)(F)F)cc4)cc3)CC2)c(Br)c1 [Compound 103] | 200 nM |
| Cc1cc(C)c(NC(=O)N2CCN(c3ccc(NC(=O)c4ccccc4-c4ccc(C(F)(F)F)cc4)cc3)CC2)c(C)c1Br [Compound 104] | 2000 nM |
| O=C(Nc1ccc(N2CCN(C(=O)Nc3ccccc3Oc3ccccc3)CC2)cc1)c1ccccc1-c1ccc(C(F)(F)F)cc1 [Compound 105] | 3310 nM |
| O=C(Nc1ccc(N2CCN(C(=O)Nc3ccc4c(c3)OCCO4)CC2)cc1)c1ccccc1-c1ccc(C(F)(F)F)cc1 [Compound 106] | 7240 nM |
| C=CCNC(=O)N1CCC(c2ccc(NC(=O)c3ccccc3-c3ccc(C(F)(F)F)cc3)cc2)CC1 [Compound 107] | 2450 nM |
| CCc1ccccc1NC(=O)N1CCC(c2ccc(NC(=O)c3ccccc3-c3ccc(C(F)(F)F)cc3)cc2)CC1 [Compound 108] | 4470 nM |
| CC(C)c1ccccc1NC(=O)N1CCC(c2ccc(NC(=O)c3ccccc3-c3ccc(C(F)(F)F)cc3)cc2)CC1 [Compound 109] | 9550 nM |
| CCc1cccc(C)c1NC(=O)N1CCC(c2ccc(NC(=O)c3ccccc3-c3ccc(C(F)(F)F)cc3)cc2)CC1 [Compound 110] | 955 nM |
| COc1cccc(OC)c1NC(=O)N1CCC(c2ccc(NC(=O)c3ccccc3-c3ccc(C(F)(F)F)cc3)cc2)CC1 [Compound 111] | 4570 nM |
| Cc1cc(C)c(NC(=O)N2CCC(c3ccc(NC(=O)c4ccccc4-c4ccc(C(F)(F)F)cc4)cc3)CC2)c(C)c1 [Compound 112] | 269 nM |
| Cc1cccc(Cl)c1NC(=O)N1CCC(c2ccc(NC(=O)c3ccccc3-c3ccc(C(F)(F)F)cc3)cc2)CC1 [Compound 113] | 1070 nM |
| O=C(Nc1ccc(C2CCN(C(=O)Nc3c(F)cc(F)cc3Br)CC2)cc1)c1ccccc1-c1ccc(C(F)(F)F)cc1 [Compound 114] | 1230 nM |

More lines, now with the values ahead:

| IC50 | Compound |
| --- | --- |
| 1950 nM | Cc1cc(Br)cc(C)c1NC(=O)N1CCC(c2ccc(NC(=O)c3ccccc3-c3ccc(C(F)(F)F)cc3)cc2)CC1 [Compound 115] |
| 2190 nM | Cc1ccc([N+](=O)[O-])c(NC(=O)N2CCC(c3ccc(NC(=O)c4ccccc4-c4ccc(C(F)(F)F)cc4)cc3)CC2)c1C [Compound 116] |
| 316 nM | Cc1cc(C)c(NC(=O)N2CCC(c3ccc(NC(=O)c4ccccc4-c4ccc(C(F)(F)F)cc4)cc3)CC2)c(Cl)c1 [Compound 117] |
| 631 nM | Cc1cc(C)c(NC(=O)N2CCC(c3ccc(NC(=O)c4ccccc4-c4ccc(C(F)(F)F)cc4)cc3)CC2)c(Br)c1 [Compound 118] |
| 4680 nM | CCCNC(=O)N1CC=C(c2ccc(NC(=O)c3ccccc3-c3ccc(C(F)(F)F)cc3)cc2)CC1 [Compound 119] |
| 4270 nM | O=C(Nc1ccc(C2=CCN(C(=O)NCC3CCCCC3)CC2)cc1)c1ccccc1-c1ccc(C(F)(F)F)cc1 [Compound 120] |
| 4900 nM | O=C(Nc1ccc(C2=CCN(C(=O)NCc3ccccc3)CC2)cc1)c1ccccc1-c1ccc(C(F)(F)F)cc1 [Compound 121] |
| 1510 nM | O=C(Nc1ccc(C2=CCN(C(=O)NCCCc3ccccc3)CC2)cc1)c1ccccc1-c1ccc(C(F)(F)F)cc1 [Compound 122] |
| 4170 nM | COc1ccc(CNC(=O)N2CC=C(c3ccc(NC(=O)c4ccccc4-c4ccc(C(F)(F)F)cc4)cc3)CC2)cc1 [Compound 123] |
| 6760 nM | CN(C)c1ccc(NC(=O)N2CC=C(c3ccc(NC(=O)c4ccccc4-c4ccc(C(F)(F)F)cc4)cc3)CC2)cc1 [Compound 124] |
| 2.82 nM | CCOC(=O)c1cccc(C(=O)Nc2ccc(N3CCN(C(=O)Nc4c(Cl)cccc4Cl)CC3)cc2)c1 [Compound 125] |
| 9.55 nM | O=C(Nc1ccc(N2CCN(C(=O)Nc3c(Cl)cccc3Cl)CC2)cc1)c1ccc(-c2ccccn2)cc1 [Compound 126] |
| 25.1 nM | CC(C)OC(=O)c1ccc(-c2cccc(C(=O)Nc3ccc(N4CCN(C(=O)Nc5c(Cl)cccc5Cl)CC4)cc3)c2)cc1 [Compound 127] |
| 661 nM | Cc1cccc(C)c1NC(=O)N1CCC(c2ccc(NC(=O)c3ccccc3-c3ccc(C(F)(F)F)cc3)cc2)CC1 [Compound 128] |
